Source: ChEMBL document CHEMBL4359815, “Design, synthesis, antitumor activities and biological studies of novel diaryl substituted fused heterocycles as dual ligands targeting tubulin and katanin” (Eur J Med Chem, 2019)
Calls of active or inactive are those of the source. The calls are words filed in the database; no cut-off is given here.

How the values were obtained:
HUVEC [1] = test: Cytotoxicity against HUVEC after 48 hrs by MTT assay; type: cell-based; details: Homo sapiens
A549 [2] = test: Induction of apoptosis in human A549 cells assessed as viable cells at 0.5 uM after 48 hrs by Annexin-V/propidium iodide staining based flow cytometric method (reference value: 92.05%); type: functional; details: A549, 48 h, read-out: Activity
HUVEC [3] = test: Antiangiogenic activity in HUVEC assessed as inhibition of capillary like tube formation in matrigel at 0.4 uM after 24 hrs by matrigel-based inverted microscopic analysis relative to control; type: functional; details: Homo sapiens
HUVEC [4] = test: Antiangiogenic activity in HUVEC assessed as inhibition of capillary like tube formation in matrigel at 0.2 uM after 24 hrs by matrigel-based inverted microscopic analysis; type: functional, cell-based; details: Homo sapiens
A549 [5] = test: Inhibition of colony formation in human A549 cells after 48 hrs by crystal violet staining based assay; type: functional, cell-based
A2780 [6] = test: Antiproliferative activity against human A2780 cells assessed as reduction in cell viability after 48 hrs by MTT assay; type: functional, cell-based; details: A2780, 48 h
HeLa = test: Antiproliferative activity against human HeLa cells assessed as reduction in cell viability after 48 hrs by MTT assay; type: functional, cell-based
HCT-116 = test: Antiproliferative activity against human HCT116 cells assessed as reduction in cell viability after 48 hrs by MTT assay; type: functional, cell-based; details: HCT-116, 48 h
A549 [7] = test: Antiproliferative activity against human A549 cells assessed as reduction in cell viability after 48 hrs by MTT assay; type: functional, cell-based; details: A549, 48 h
Tubulin (Homo sapiens) = Tubulin (Homo sapiens) (UniProt P68371+Q9H4B7+P0DPH7+P68366+Q13509+Q71U36+P04350+Q3ZCM7+P07437+P68363+Q9BQE3+Q6PEY2+Q13885+Q9BVA1+Q9BUF5); test: Induction of tubulin depolymerization in human HeLa cells after 24 hrs by DAPI staining based fluorescence microscopic analysis; type: cell-based
[8] = Binding affinity to human katanin by MST assay
[9] = biological target: Katanin p60 ATPase-containing subunit A1 (Homo sapiens) (UniProt O75449); test: Inhibition of Katanin p60 degradation in human A549 cells preincubated for 15 mins followed by compound addition in presence of cycloheximide by immunoblotting analysis; type: cell-based
A549 [10] = test: Antiproliferative activity against human A549 cells harboring control siRNA after 48 hrs by MTT assay; type: functional, cell-based; details: A549, 48 h
A549 [11] = test: Antiproliferative activity against human A549 cells harboring katanin siRNA after 48 hrs by MTT assay; type: functional, cell-based; details: A549, 48 h
A549 [12] = test: Cell cycle arrest in human A549 cells assessed as accumulation of cells at G2/M phase at 0.5 to 2 uM after 24 hrs by RNase A/propidium iodide staining-based flow cytometric analysis; type: functional
A549 [13] = test: Cell cycle arrest in human A549 cells after 24 hrs by RNase A/propidium iodide staining-based flow cytometric analysis; type: functional
A549 [14] = test: Cell cycle arrest in human A549 cells assessed as increase in cyclin B1 expression at 0.5 to 2 uM after 24 hrs by immunoblotting analysis; type: functional, cell-based
A549 [15] = test: Cell cycle arrest in human A549 cells assessed as increase in p21 expression at 0.5 to 2 uM after 24 hrs by immunoblotting analysis; type: functional, cell-based
A549 [16] = test: Cell cycle arrest in human A549 cells assessed as increase in histone 3 phosphorylation at 0.5 to 2 uM after 24 hrs by immunoblotting analysis; type: functional, cell-based
Tubulin (Sus scrofa) = Tubulin (Sus scrofa) (UniProt P02554+P02550); test: (§1) Inhibition of pig brain tubulin polymerization measured every 1 min for 25 mins by spectrophotometric method
Tubulin = Tubulin (Sus scrofa, UniProt P02554+P02550); test: as §1
A549 [17] = test: Induction of apoptosis in human A549 cells assessed as early apoptotic cells at 0.5 uM after 48 hrs by Annexin-V/propidium iodide staining based flow cytometric method (reference value: 0.51%); type: functional
A549 [18] = test: Induction of apoptosis in human A549 cells assessed as late apoptotic cells at 0.5 uM after 48 hrs by Annexin-V/propidium iodide staining based flow cytometric method (reference value: 1.18%); type: functional
A549 [19] = test: Induction of apoptosis in human A549 cells assessed as necrotic cells at 0.5 uM after 48 hrs by Annexin-V/propidium iodide staining based flow cytometric method (reference value: 6.26%); type: functional
A549 [20] = test: Induction of apoptosis in human A549 cells assessed as viable cells at 1 uM after 48 hrs by Annexin-V/propidium iodide staining based flow cytometric method (reference value: 92.05%); type: functional; details: A549, 48 h, read-out: Activity
A549 [21] = test: Induction of apoptosis in human A549 cells assessed as early apoptotic cells at 1 uM after 48 hrs by Annexin-V/propidium iodide staining based flow cytometric method (reference value: 0.51%); type: functional
A549 [22] = test: Induction of apoptosis in human A549 cells assessed as late apoptotic cells at 1 uM after 48 hrs by Annexin-V/propidium iodide staining based flow cytometric method (reference value: 1.18%); type: functional
A549 [23] = test: Induction of apoptosis in human A549 cells assessed as necrotic cells at 1 uM after 48 hrs by Annexin-V/propidium iodide staining based flow cytometric method (reference value: 6.26%); type: functional
A549 [24] = test: Induction of apoptosis in human A549 cells assessed as viable cells at 2 uM after 48 hrs by Annexin-V/propidium iodide staining based flow cytometric method (reference value: 92.05%); type: functional; details: A549, 48 h, read-out: Activity
A549 [25] = test: Induction of apoptosis in human A549 cells assessed as early apoptotic cells at 2 uM after 48 hrs by Annexin-V/propidium iodide staining based flow cytometric method (reference value: 0.51%); type: functional
A549 [26] = test: Induction of apoptosis in human A549 cells assessed as late apoptotic cells at 2 uM after 48 hrs by Annexin-V/propidium iodide staining based flow cytometric method (reference value: 1.18%); type: functional
A549 [27] = test: Induction of apoptosis in human A549 cells assessed as necrotic cells at 2 uM after 48 hrs by Annexin-V/propidium iodide staining based flow cytometric method (reference value: 6.26%); type: functional
A549 [28] = test: Induction of apoptosis in human A549 cells after 48 hrs by Annexin-V/propidium iodide staining based flow cytometric method; type: functional, cell-based
A549 [29] = test: Induction of apoptosis in human A549 cells assessed as PARP cleavage at 2 to 8 uM after 48 hrs by immunoblotting analysis; type: functional, cell-based
A549 [30] = test: Induction of apoptosis in human A549 cells assessed as increase in Bad expression level at 2 to 8 uM after 48 hrs by immunoblotting analysis; type: functional, cell-based
A549 [31] = test: Induction of apoptosis in human A549 cells assessed as increase in p53 expression level at 2 to 8 uM after 48 hrs by immunoblotting analysis; type: functional, cell-based
[32] = AUC (0 to 24 hrs) in ICR mouse at 50 mg/kg, ip after 0.08 to 24 hrs by HPLC-MS/MS analysis; type: ADME, organism-based; design: time < 24 hr, dose 50 mg/kg, route intraperitoneal; details: in vivo
[33] = AUC(0 to infinity) in ICR mouse at 50 mg/kg, ip after 0.08 to 24 hrs by HPLC-MS/MS analysis; type: ADME, organism-based; design: dose 50 mg/kg, time infinity, route intraperitoneal; details: in vivo
[34] = Cmax in ICR mouse at 50 mg/kg, ip after 0.08 to 24 hrs by HPLC-MS/MS analysis; type: ADME, organism-based; design: dose 50 mg/kg, route intraperitoneal; details: in vivo
[35] = Tmax in ICR mouse at 50 mg/kg, ip after 0.08 to 24 hrs by HPLC-MS/MS analysis; type: ADME, organism-based; details: in vivo
[36] = Half life in ICR mouse at 50 mg/kg, ip after 0.08 to 24 hrs by HPLC-MS/MS analysis; type: ADME, organism-based; details: in vivo
[37] = Apparent volume of distribution in ICR mouse at 50 mg/kg, ip after 0.08 to 24 hrs by HPLC-MS/MS analysis; type: ADME, organism-based; details: in vivo
[38] = Apparent oral clearance ICR mouse at 50 mg/kg, ip after 0.08 to 24 hrs by HPLC-MS/MS analysis; type: ADME, organism-based; details: in vivo
[39] = MRT in ICR mouse at 50 mg/kg, ip after 0.08 to 24 hrs by HPLC-MS/MS analysis; type: ADME, organism-based; details: in vivo
A2780 [40] = test: Antitumour activity against human A2780 cells xenografted in Balb/c mouse assessed as reduction in tumour volume at 25 to 50 mg/kg, ip administered every other day by caliper method; type: functional, organism-based
[41] = Toxicity in Balb/c mouse xenografted with human A2780 cells assessed effect on body weight at 25 to 50 mg/kg, ip administered every other day; type: organism-based; details: in vivo
A2780 [42] = test: Antitumour activity against human A2780 cells xenografted in Balb/c mouse assessed as reduction in tumour weight at 25 to 50 mg/kg, ip administered every other day; type: functional, organism-based

Sequence of Tubulin (Sus scrofa) (P02550 whole entry, looked up): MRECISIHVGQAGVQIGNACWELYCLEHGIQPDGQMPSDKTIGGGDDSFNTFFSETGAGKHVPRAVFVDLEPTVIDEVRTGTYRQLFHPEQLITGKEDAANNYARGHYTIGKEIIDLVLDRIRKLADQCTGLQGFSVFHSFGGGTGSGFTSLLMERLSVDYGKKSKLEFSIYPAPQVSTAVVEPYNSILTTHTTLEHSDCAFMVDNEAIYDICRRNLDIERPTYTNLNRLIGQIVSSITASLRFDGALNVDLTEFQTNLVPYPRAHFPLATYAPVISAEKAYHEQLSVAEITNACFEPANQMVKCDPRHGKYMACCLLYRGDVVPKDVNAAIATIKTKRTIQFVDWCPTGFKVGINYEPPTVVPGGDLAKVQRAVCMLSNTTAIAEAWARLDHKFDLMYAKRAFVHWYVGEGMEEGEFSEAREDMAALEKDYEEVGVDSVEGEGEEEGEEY
Sequence of Tubulin (Sus scrofa) (P02554 whole entry, looked up): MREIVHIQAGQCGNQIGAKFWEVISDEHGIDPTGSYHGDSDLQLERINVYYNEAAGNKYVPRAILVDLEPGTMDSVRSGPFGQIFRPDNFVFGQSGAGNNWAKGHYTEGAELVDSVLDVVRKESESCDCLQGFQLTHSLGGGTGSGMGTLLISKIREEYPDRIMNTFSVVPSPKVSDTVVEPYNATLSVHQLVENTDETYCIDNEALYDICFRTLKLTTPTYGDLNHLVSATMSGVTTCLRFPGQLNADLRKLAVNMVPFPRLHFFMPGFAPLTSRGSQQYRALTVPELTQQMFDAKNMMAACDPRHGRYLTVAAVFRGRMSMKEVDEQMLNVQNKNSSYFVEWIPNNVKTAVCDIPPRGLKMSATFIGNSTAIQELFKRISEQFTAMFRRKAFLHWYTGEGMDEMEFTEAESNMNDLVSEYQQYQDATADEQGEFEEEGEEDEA
Sequence of Katanin p60 ATPase-containing subunit A1 (Homo sapiens) (O75449 whole entry): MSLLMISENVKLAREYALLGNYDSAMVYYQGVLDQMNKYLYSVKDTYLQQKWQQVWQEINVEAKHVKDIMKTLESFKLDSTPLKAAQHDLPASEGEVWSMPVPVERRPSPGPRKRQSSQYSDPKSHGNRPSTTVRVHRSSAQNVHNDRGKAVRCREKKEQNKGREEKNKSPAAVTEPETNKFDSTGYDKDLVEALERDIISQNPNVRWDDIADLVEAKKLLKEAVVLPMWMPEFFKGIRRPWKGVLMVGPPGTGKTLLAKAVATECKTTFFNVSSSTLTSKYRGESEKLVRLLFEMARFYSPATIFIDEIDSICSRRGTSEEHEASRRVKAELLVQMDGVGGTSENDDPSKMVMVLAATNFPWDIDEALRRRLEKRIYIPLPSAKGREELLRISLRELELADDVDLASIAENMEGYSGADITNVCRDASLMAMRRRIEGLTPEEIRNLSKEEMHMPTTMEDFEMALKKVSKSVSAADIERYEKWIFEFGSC

COc1ccc(-c2cc3c([nH]c(=O)n3-c3cc(OC)c(OC)c(OC)c3)c(C(N)=O)n2)cc1O
IC50 (HUVEC [1]): > 10 µM | viability at 0.5 µM (A549 [2]): 79.7% | inhibition at 0.4 µM (HUVEC [3]): 100% | inhibition (HUVEC [4]): Active | inhibition (A549 [5]): Dose-dependent effect | IC50 (A2780 [6]): 0.21 µM | IC50 (HeLa): 0.25 µM | IC50 (HCT-116): 0.17 µM | IC50 (A549 [7]): 0.4 µM | Activity (Tubulin (Homo sapiens)): Dose-dependent effect | Kd [8]: 12.7 µM | inhibition [9]: inactive | IC50 (A549 [10]): 0.34 µM | IC50 (A549 [11]): 1.48 µM | inhibition (A549 [12]): Active | inhibition (A549 [13]): Dose-dependent effect | Activity (A549 [14]): Active | Activity (A549 [15]): Active | Activity (A549 [16]): Active | inhibition (Tubulin (Sus scrofa)): Dose-dependent effect | IC50 (Tubulin): 8.4 µM | Activity (A549 [17]): 7.51% | Activity (A549 [18]): 5.43% | Activity (A549 [19]): 7.34% | viability at 1 µM (A549 [20]): 65.1% | Activity (A549 [21]): 15.85% | Activity (A549 [22]): 8.69% | Activity (A549 [23]): 10.33% | viability at 2 µM (A549 [24]): 42.2% | Activity (A549 [25]): 36.48% | Activity (A549 [26]): 14.08% | Activity (A549 [27]): 7.2% | Activity (A549 [28]): Dose-dependent effect | Activity (A549 [29]): Active | Activity (A549 [30]): Active | Activity (A549 [31]): Active | AUC(0-t) at 24 h [32]: 2630 ng·h/mL | AUC(0-inf) [33]: 2950 ng·h/mL | Cmax [34]: 580 ng/mL | Tmax [35]: 0.23 h | half-life [36]: 9.36 h | Vd/F [37]: 4625.07 mL | CL/F [38]: 5.73 mL/min | MRT [39]: 8.39 h | Activity (A2780 [40]): Active | Activity [41]: Non-Toxic | Activity (A2780 [42]): Active
